The results in this text go back to US20100137346A1, “DESFE[…] ACTINIDE DEC[…]” (priority 2006, published 2010).

The experiment is described as follows: Chelator-induced uranium excretion (urine + bile, 24 h) in bile duct-cannulated rat model. It is filed as in vivo. Particulars: for uranium clearance, in words: given IP immediately post uranyl acetate, doses per Table 1. The procedure:
Desferrithiocin Analogue Induced Excretion of Uranium. In order to compare results with previous chelator-induced iron excretion data, the uranium clearance studies were carried out in a bile duct-cannulated rat model. The animals were given uranyl acetate dihydrate SC at a dose of 5 mg/kg (the actual dose of uranium is 2.8 mg/kg). Bile and urine samples were collected for 24 hours after dosing. Kidneys were removed from selected animals and tissue uranium concentration measured. At least three animals were utilized in each experimental group. Data from two separate control studies (uranyl acetate/ no chelator) have now been combined for a total of 14 control animals. All uranium concentrations were measured using ICPMS. The data are reported as the total quantity of uranium excreted [urine +bile]; the mode of excretion [urine/bile] is also given. In addition the percentage of the administered dose of uranium cleared and chelator-induced uranium excretion vs the controls is also given. Four positive controls were evaluated: DTPA (13, Table 1) given as its trisodium calcium salt, DFO (14), N,N′-bis(2hydroxybenzyl)ethylenediamine-N,N′-diacetic acid, monosodium salt (NaHBED, 15) and the hydroxypyridone CP94 (16) shown to bind uranium [Pashalidis, et al., Effective complex formation in the interaction of 1,2-dimethyl-3-hydroxypyrid-4-one (Deferiprone or L1) with uranium(VI), Journal of Radioanalytical and Nuclear Chemistry 1999; 242:181-184.] The total metal cleared after 24 h in control rats was 10% of the administered dose. When DTPA, 13, was given IP or PO at 300 μmol/kg immediately after uranium, the excretion was 17% and 8% of the administered dose respectively (p>0.05). However, when the drug was given IP at a dose of 600 μmol/kg immediately post-metal, the uranium excretion was significant, 20% (p<0.005). This is consistent with previously published data using a similar animal model.[Domingo, et al., Comparative effects of the chelators sodium 4,5-dihydroxybenzene-1,3-disulfonate (Tiron) and diethylenetriaminepentaacetic acid (DTPA) on acute uranium nephrotoxicity in rats, Toxicology 1997; 118:49-59] DFO (14) and CP94 (16) given IP immediately post uranyl acetate were ineffective.
Desferrithiocin Analogue-Induced Excretion of Uranium. In order to compare results with previous chelator-induced iron excretion data, the uranium clearance studies were carried out in a bile duct-cannulated rat model. The animals were given uranyl acetate dihydrate SC at a dose of 5 mg/kg (the actual dose of uranium is 2.8 mg/kg). Bile and urine samples were collected for 24 hours after dosing. Kidneys were removed from selected animals and tissue uranium concentration measured. At least three animals were utilized in each experimental group. Data from two separate control studies (uranyl acetate/ no chelator) are combined for a total of 14 control animals. All uranium concentrations were measured using ICPMS. The data are reported as the total quantity of uranium excreted [urine +bile]; the mode of excretion [urine/bile] is also given. In addition the percentage of the administered dose of uranium cleared and chelator-induced uranium excretion vs the controls is also given. Four positive controls were evaluated: DTPA (1, Table 1) given as its trisodium calcium salt, DFO (2), N,N -bis(2-hydroxybenzyl)ethylenediamine-N,N-diacetic acid, monosodium salt (NaHBED, 3) and the hydroxypyridone CP94 (4) shown to bind uranium. The total metal cleared after 24 h in control rats was 10% of the administered dose. When DTPA, 1, was given IP or PO at 300 μmol/kg immediately after uranium, the excretion was 17% and 8% of the administered dose respectively (p>0.05). However, when the drug was given IP at a dose of 600 μmol/kg immediately post metal, the uranium excretion was significant, 20% (p<0.005). This is consistent with previously published data using a similar animal model.^2 DFO (2) and CP94 (4) given IP immediately post uranyl acetate were ineffective.

Setting [1] is: Rattus norvegicus, ip, 24 h, 300 μmol/kg IP Immediate, read-out: Chelator-Induced U Excretion/Control.
The mark [2] stands for this setting: Rattus norvegicus, ip, 24 h, 300 μmol/kg IP 0.5 h Post, read-out: Chelator-Induced U Excretion/Control.
Setting [3] is: Rattus norvegicus, po, 24 h, 300 μmol/kg PO Immediate, read-out: Chelator-Induced U Excretion/Control.

Read-outs that look alike come from different tables or passages of the source.

For the compound `CC(=O)N(O)CCCNC(=O)CCC(=O)N(O)CCCCCNC(=O)CCC(=O)N(O)CCCN`, for the setting “300 μmol/kg IP Immediate”, the “% of Administered Dose Cleared” value is recorded as 16%, the “Uranium Excretion” value amounted to 438 ± 191 µg/kg and the “Uranium Excretion [urine/bite]” value is recorded as 100/0. Further, the response vs control in vivo at 300 µmol/kg under setting [1] is 160%.
As for `COCCOCCOCCOc1ccc(C2=N[C@](C)(C(=O)O)CS2)c(O)c1`, under “300 μmol/kg IP Immediate”, the “% of Administered Dose Cleared” value stood at 22%, the “Uranium Excretion” value was 626 ± 123 µg/kg and the “Uranium Excretion [urine/bite]” value is recorded as 35/65. For the same compound, the response vs control in vivo at 300 µmol/kg under setting [1] amounted to 220%.
For `COc1ccc(C2=N[C@H](C(=O)O)CS2)c(O)c1`, the “% of Administered Dose Cleared” value was 33% (300 μmol/kg IP 0.5 h Post); 29% (300 μmol/kg IP 0.5 h Pre); 30% (300 μmol/kg IP 2 h Post); 16% (300 μmol/kg IP 4 h Post); 30% (300 μmol/kg IP Immediate); 18% (300 μmol/kg PO 2 h Post). In addition, the “% of Administered Dose Cleared” value is, setting by setting: (300 μmol/kg PO Immediate) 23%; (300 μmol/kg SC Immediate) 40%; (600 μmol/kg PO 0.5 h Post) 25%; (600 μmol/kg PO 1 h Post) 26%. The “Uranium Excretion” value is, setting by setting: (300 μmol/kg IP 0.5 h Post) 917 ± 177 µg/kg; (300 μmol/kg IP 0.5 h Pre) 815 ± 211 µg/kg; (300 μmol/kg IP 2 h Post) 847 ± 335 µg/kg; (300 μmol/kg IP 4 h Post) 444 ± 119 µg/kg; (300 μmol/kg IP Immediate) 838 ± 166 µg/kg; (300 μmol/kg PO 2 h Post) 507 ± 182 µg/kg. The “Uranium Excretion” value is, setting by setting: (300 μmol/kg PO Immediate) 642 ± 101 µg/kg; (300 μmol/kg SC Immediate) 1130 ± 246 µg/kg; (600 μmol/kg PO 0.5 h Post) 698 ± 166 µg/kg; (600 μmol/kg PO 1 h Post) 723 ± 126 µg/kg. Also, the “Uranium Excretion [urine/bite]” value is listed as 16/84 (300 μmol/kg IP 0.5 h Post); 48/52 (300 μmol/kg IP 0.5 h Pre); 46/54 (300 μmol/kg IP 2 h Post); 66/34 (300 μmol/kg IP 4 h Post); 64/36 (300 μmol/kg IP Immediate); 53/47 (300 μmol/kg PO 2 h Post). Moreover, the “Uranium Excretion [urine/bite]” value is given as 43/57 (300 μmol/kg PO Immediate), 13/87 (300 μmol/kg SC Immediate), 24/76 (600 μmol/kg PO 0.5 h Post) and 28/72 (600 μmol/kg PO 1 h Post). Besides, the response vs control in vivo at 300 µmol/kg amounted to 330% under setting [2]; 290% (Rattus norvegicus, ip, 24 h, 300 μmol/kg IP 0.5 h Pre, read-out: Chelator-Induced U Excretion/Control); 300% (Rattus norvegicus, ip, 24 h, 300 μmol/kg IP 2 h Post, read-out: Chelator-Induced U Excretion/Control); 160% (Rattus norvegicus, ip, 24 h, 300 μmol/kg IP 4 h Post, read-out: Chelator-Induced U Excretion/Control); 300% under setting [1]; 180% (Rattus norvegicus, po, 24 h, 300 μmol/kg PO 2 h Post, read-out: Chelator-Induced U Excretion/Control). For the same compound, the response vs control in vivo at 300 µmol/kg worked out at 230% under setting [3] and 400% (Rattus norvegicus, sc, 24 h, 300 μmol/kg SC Immediate, read-out: Chelator-Induced U Excretion/Control). Moreover, the response vs control in vivo at 600 µmol/kg (Rattus norvegicus, po, 24 h, 600 μmol/kg PO 0.5 h Post, read-out: Chelator-Induced U Excretion/Control) was 250% and the response vs control in vivo at 600 µmol/kg (Rattus norvegicus, po, 24 h, 600 μmol/kg PO 1 h Post, read-out: Chelator-Induced U Excretion/Control) was found to be 260%.
Regarding `COc1ccc(C2=N[C@](C)(C(=O)O)CS2)c(O)c1`, the “% of Administered Dose Cleared” value by setting is: (300 μmol/kg IP 0.5 h Post) 15%; (300 μmol/kg IP Immediate) 20%. For the same compound, the “Uranium Excretion” value amounted to 413 ± 148 µg/kg (300 μmol/kg IP 0.5 h Post) and 568 ± 133 µg/kg (300 μmol/kg IP Immediate). Further, the “Uranium Excretion [urine/bite]” value (300 μmol/kg IP 0.5 h Post) is recorded as 37/63 and the “Uranium Excretion [urine/bite]” value (300 μmol/kg IP Immediate) is 59/41. For the same compound, the response vs control in vivo at 300 µmol/kg turned out to be 150% under setting [2] and 200% under setting [1].
In the case of `CC1(C)SC(c2ccccc2O)=NC1C(=O)O` (stereo in doubt) [Compound 17, (S)-4,5-dihydro-5,5-dimethyl-2-(2-hydroxyphenyl)-4-thiazolecarboxylic acid], the “% of Administered Dose Cleared” value (300 μmol/kg IP Immediate) is 26%. Further, the “uranium excretion, in words” value (IP 300 μmol/kg, given 0.5 h post metal) was “insignificant”.
Take `CCC1=C(O)C(=O)CCN1CC` [CP94, reference compound]: the “uranium clearance, in words” value is on record as “ineffective”.
On the same count and under the same terms, under `O=C([O-])CN(CCN(CC(=O)O)Cc1ccccc1O)Cc1ccccc1O.[Na+]` [NaHBED, N,N′-bis(2hydroxybenzyl)ethylenediamine-N,N′-diacetic acid, monosodium salt, reference compound] stands “marginally improved clearance”.
In the case of `O=C(O)CN(CCN(CC(=O)O)CC(=O)O)CCN(CC(=O)O)CC(=O)O` [drawing 4], the “% of Administered Dose Cleared” value (300 μmol/kg IP Immediate) was determined as 17%, the “% of Administered Dose Cleared” value (300 μmol/kg PO Immediate) came to 6% and the “% of Administered Dose Cleared” value (600 μmol/kg IP Immediate) was determined as 20%. Moreover, the “Uranium Excretion” value worked out at 469 ± 271 µg/kg (300 μmol/kg IP Immediate), 235 ± 205 µg/kg (300 μmol/kg PO Immediate) and 546 ± 147 µg/kg (600 μmol/kg IP Immediate). Further, the “Uranium Excretion [urine/bite]” value runs as follows: (300 μmol/kg IP Immediate) 99/1; (300 μmol/kg PO Immediate) “[100/0]”; (600 μmol/kg IP Immediate) “[100/0]”. The response vs control in vivo at 300 µmol/kg under setting [1] was 170% and the response vs control in vivo at 300 µmol/kg under setting [3] is 80%. Besides, the response vs control in vivo at 600 µmol/kg (Rattus norvegicus, ip, 24 h, 600 μmol/kg IP Immediate, read-out: Chelator-Induced U Excretion/Control) came to 200%.
In the case of `O=C([O-])CN(CCN(CC(=O)O)Cc1ccccc1O)Cc1ccccc1O.[Na+]` [drawing 6], where the note is “150 μmol/kg IP Immediate”, the “% of Administered Dose Cleared” value was 17%, the “Uranium Excretion” value worked out at 483 ± 119 µg/kg and the “Uranium Excretion [urine/bite]” value is 97/3. The response vs control in vivo at 150 µmol/kg (Rattus norvegicus, ip, 24 h, 150 μmol/kg IP Immediate, read-out: Chelator-Induced U Excretion/Control) was 170%.
In the case of `CCC1=C(O)C(=O)CCN1CC` [drawing 7], where the note is “450 μmol/kg IP Immediate”, the “% of Administered Dose Cleared” value is listed as 11%, the “Uranium Excretion” value worked out at 302 ± 171 µg/kg and the “Uranium Excretion [urine/bite]” value was 100/0. The response vs control in vivo at 450 µmol/kg (Rattus norvegicus, ip, 24 h, 450 μmol/kg IP Immediate, read-out: Chelator-Induced U Excretion/Control) stood at 110%.
On to `COc1ccc(C2=N[C@@](C)(C(=O)O)CS2)c(O)c1` [drawing 8], for which, where the note is “300 μmol/kg IP 0.5 h Post”, the “% of Administered Dose Cleared” value is listed as 15%, the “Chelator-Induced U Excretion/Control” value came to 1.5, the “Uranium Excretion” value was 413 ± 148 µg/kg and the “Uranium Excretion [urine/bite]” value is “[37/63]”. Moreover, under “300 μmol/kg IP Immediate”, the “Chelator-Induced U Excretion/Control” value is given as 2.0, the “Uranium Excretion” value came to 568 ± 133 µg/kg and the “Uranium Excretion [urine/bite]” value was 59/41.
With `CC1(C)SC(c2ccccc2O)=N[C@@H]1C(=O)O` [drawing 9], under “300 μmol/kg IP 0.5 h Post”, the “% of Administered Dose Cleared” value was 7%, the “Uranium Excretion” value stood at 200 ± 47 µg/kg and the “Uranium Excretion [urine/bite]” value is “[37/63]”. In addition, under “300 μmol/kg IP Immediate”, the “% of Administered Dose Cleared” value was 26%, the “Uranium Excretion” value is 743 ± 189 µg/kg and the “Uranium Excretion [urine/bite]” value is on record as 8/92. Moreover, the response vs control in vivo at 300 µmol/kg under setting [2] amounted to 70%. In addition, the response vs control in vivo at 300 µmol/kg under setting [1] turned out to be 260%.
